Assay [1] relates to GSTs in mouse liver cytosol.
Assay [2] has as its system GSTs (H site) in mouse liver cytosol. As to conditions: read-out: EC50 of inhibition of GST-ABP-H probe labeling, 10 μM probe.
For assay [3], the system named is cytosolic fraction of mouse liver lysate. It is filed as binding. As to conditions: increasing probe concentrations; SDS-PAGE. The procedure:
FIG. 15B show results from labeling glutathione transferase (GSH and GST) with probe embodiments described herein using 1 μM mouse liver cytosol.
(§1) Concentration dependent labeling of a recombinant GST (FIG. 15A) was evaluated. The two probe embodiments, GSH-ABP-G and GST-ABP-H, were applied with increasing concentrations to the recombinant human GSTM1, a GST isoenzyme that is highly expressed in mammalian liver. […] Both probes were then applied with increasing concentrations to the cytosolic fraction of mouse liver lysate to further test probe targeting (FIG. 15B). Both probes strongly label two distinct bands at 24 kDa. The lower band is likely GSTP1, a 23.6 kDa protein highly abundant in the liver. […] To determine the specific GST isoforms targeted by each probe, LC-MS based proteomics analyses of mouse liver labeling, and labeling in the presence of specific inhibitors were performed (FIGS. 16A and 16B). […] 27 probe-targeted proteins were determined to be statistically significant targets of the GSH-ABP-G probe embodiment at a fold-change of 3 over no UV exposure controls. Of these 27 proteins, 8 are known GSTs and include members of mu, alpha, pi, theta, kappa, and zeta classes. The remaining proteins include five proteins with known GSH binding, one with known antioxidant and drug binding activity, and five proteins highly abundant in liver with no known GSH binding activity. […]

In assay [4] the test system is GST isoenzymes in lung lysate. As to the kind of experiment: LC-MS proteomics of probe-enriched mouse lung lysate. It is filed as binding.
The target of a further assay is T1, recombinant human GSTM1 (Homo sapiens, UniProt P09488).
T1 sequence (P09488 1-218): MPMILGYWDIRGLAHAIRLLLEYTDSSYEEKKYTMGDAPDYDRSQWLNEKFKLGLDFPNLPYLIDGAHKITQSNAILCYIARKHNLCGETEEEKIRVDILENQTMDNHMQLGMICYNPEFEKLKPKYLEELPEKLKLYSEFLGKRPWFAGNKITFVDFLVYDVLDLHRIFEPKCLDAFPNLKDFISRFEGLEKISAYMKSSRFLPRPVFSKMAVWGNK
As to the kind of experiment: Concentration-dependent probe labeling of recombinant GST (SDS-PAGE). It is filed as binding. As to conditions: increasing probe concentrations, 30 minutes incubation, rhodamine click. The procedure: FIG. 15A show results from labeling glutathione transferase (GSH and GST) with probe embodiments described herein using 1 μM recombinant human GSTm1.
as §1

The test system of a further assay is gut microbiota. It is filed as in vivo, mouse. As to conditions: vancomycin in drinking water 0.1 mg/mL.
Assay [5] relates to glucuronidase activity in the gut microbiome. It is filed as in vivo, mouse. As to conditions: vancomycin in drinking water 0.1 mg/mL; 4 of 5 sets of litter mates. The procedure:
For the glucuronidase studies, female C57BL/6J mice age 6-8 weeks were purchased from Jackson Laboratories and housed with a 12 hour light/12 hour dark light cycle. Food (PMI 5002) and water were provided ad libitum. Mice were acclimated for 7 days prior to the onset of any treatment. During this time, littermates were co-housed. After this time, mice were placed in separate cages for antibiotic treatment. One set of littermates (n=5) were exposed to vancomycin in drinking water (0.1 mg/mL). The other set were given normal water. To monitor for adverse reactions to the antibiotics, researchers could not be blinded to treatment group during exposure, and were not blinded during subsequent analysis.
Microbial cells from the mouse gut were suspended in PBS with protease inhibitor (cOmplete EDTA-free Protease Inhibitor, Roche) and lysed via bead beating (Bullet Blender). 4-methylumbelliferyl-s-D-glucuronide (4-MUG; 1 mM) was added to 50 μL lysate (0.9 μg total protein) to achieve a final concentration of 500 μM. […] Fluorescence was measured using a plate reader (Molecular Biosciences), and amount of hydrolyzed substrate was calculated relative to a standard curve. Rate (mM/s) was determined via linear regression (GraphPad Prism) and activity was calculated as rate per μg protein. […]

Setting [6] is: 10 μM probe, mouse liver cytosol.

Molecules are shown by their SMILES.

A word on the EC50: it is the concentration at which the effect is half-maximal.

As for `CCCCCCSC[C@H](NC(=O)CC[C@H](N)C(=O)O)C(=O)NCC(=O)O` [S-hexylglutathione, reference compound], the “fold change inhibition of GST-ABP-H and GSH-ABP-G labeling of GSTA3, M1, and P1” value in assay [1] (S-hexylglutathione competed liver cytosol, p≤0.05) is listed as more than 3.0. The half-maximal effective concentration (EC50) in assay [2] came to 41.5 µM.

Regarding `C#CCNC(=O)C(Cc1ccc(C(=O)c2ccccc2)cc1)NC(=O)CSCC(NC(=O)CC[C@H](N)C(=O)O)C(=O)NCC(=O)O` (some centres unmarked) [GSH-ABP-G, N5-(3-((2-((3-(4-benzoylphenyl)-1-oxo-1-(prop-2-yn-1-ylamino)propan-2-yl)amino)-2-oxoethyl)thio)-1-((carboxymethyl)amino)-1-oxopropan-2-yl)glutamine], the “number of GSTs enriched by probe in mouse liver” value in assay [1] (setting [6]) is 8. Further, in assay [1] (fold-change of 3 over no UV exposure controls, 10 μM probe), the “number of statistically significant probe-targeted proteins” value is 27. Also, the “selectivity of labeling in mouse liver cytosol” value in assay [3] is reported as “high selectivity”. Besides, the “number of GST isoenzymes enriched by probe in lung lysate” value in assay [4] is on record as 3. Besides, the “labeling of recombinant human GSTM1” value at recombinant human GSTM1 is listed as “concentration-dependent targeting”.

`CCN1C(=O)C=CC1=O` [N-ethylmaleimide, reference compound]: in assay [1] (competitor 100 μM, mouse liver cytosol), the “competition of GST-ABP-H labeling (proteomic analysis)” value is on record as “failed to compete for binding of most GST isoenzymes”.

On to `C#CCCCC(=O)Nc1cccc2c1C(=O)C(Cl)=C(Cl)C2=O` [GST-ABP-H, N-(6,7-dichloro-5,8-dioxo-5,8-dihydronaphthalen-1-yl)hex-5-ynamide], for which the “number of GSTs enriched by probe in mouse liver” value in assay [1] (setting [6]) stood at 12. Besides, the “selectivity of labeling in mouse liver cytosol” value in assay [3] is “more susceptible to off-target labeling”. For the same compound, in assay [4], the “number of GST isoenzymes enriched by probe in lung lysate” value is recorded as 11. Besides, the “labeling of recombinant human GSTM1” value on recombinant human GSTM1 was “concentration-dependent targeting”.

As to `CN[C@H](CC(C)C)C(=O)N[C@H]1C(=O)N[C@@H](CC(N)=O)C(=O)N[C@H]2C(=O)N[C@H]3C(=O)N[C@H](C(=O)N[C@H](C(=O)O)c4cc(O)cc(O)c4-c4cc3ccc4O)[C@H](O)c3ccc(c(Cl)c3)Oc3cc2cc(c3O[C@@H]2O[C@H](CO)[C@@H](O)[C@H](O)[C@H]2O[C@H]2C[C@](C)(N)[C@H](O)[C@H](C)O2)Oc2ccc(cc2Cl)[C@H]1O` [Vancomycin], in the assay with gut microbiota, the “relative abundance of Firmicutes in gut microbiota” value is recorded as “dramatically decreased”. The “glucuronidase activity in gut microbiome after treatment” value in assay [5] is recorded as “reduced, but did not eliminate”.

These data come from US11891655B2, “Probe for selectively characterizing enzymes involved in xenobiotic metabolism and method of making and using the same” (Battelle Memorial Institute, priority 2017, dated 2024).
